Test results taken from ChEMBL document CHEMBL1136464, “Array synthesis of novel lipodepsipeptide” (Bioorg Med Chem Lett, 2003).
Values after ≈ are worked out from the molar mass of the structure shown.

Tests used:
Type in all cases: functional
Enterococcus faecium [1] = assay: Antibacterial activity against Enterococcus faecium ATCC 49452 at 0 % serum
Enterococcus faecium [2] = assay: Antibacterial activity against Enterococcus faecium ATCC 49452 at 10 % serum; settings: ATCC 49452, Serum
Enterococcus faecalis [3] = assay: Antibacterial activity against Enterococcus faecalis ATCC 6569 at 0 % serum
Enterococcus faecalis [4] = assay: Antibacterial activity against Enterococcus faecalis ATCC 6569 at 10 % serum; settings: ATCC 6569, Serum
Staphylococcus aureus [5] = assay: Antibacterial activity against methicillin-resistant staphylococcus aureus ATCC 43300 at 10 % serum
Staphylococcus aureus [6] = assay: Antibacterial activity against methicillin susceptible staphylococcus aureus ATCC 29213 at 0 % serum
Staphylococcus aureus [7] = assay: Antibacterial activity against methicillin susceptible staphylococcus aureus ATCC 29213 at 10 % serum
Staphylococcus aureus [8] = assay: Antibacterial activity against methicillin-resistant staphylococcus aureus ATCC 43300 at 0 % serum

| SMILES | MIC (Enterococcus faecium [1]) [µg/mL] | MIC (Enterococcus faecium [2]) [µg/mL] | MIC (Enterococcus faecalis [3]) [µg/mL] | MIC (Enterococcus faecalis [4]) [µg/mL] | MIC (Staphylococcus aureus [5]) [µg/mL] | MIC (Staphylococcus aureus [6]) [µg/mL] | MIC (Staphylococcus aureus [7]) [µg/mL] | MIC (Staphylococcus aureus [8]) [µg/mL] |
| --- | --- | --- | --- | --- | --- | --- | --- | --- |
| CCCCCCCCCC(=O)N[C@@H](Cc1c[nH]c2ccccc12)C(=O)N[C@H](CC(N)=O)C(=O)N[C@@H](CCO)C(=O)N[C@@H]1C(=O)NCC(=O)N[C@@H](CCCNCc2ccc(OCc3ccccc3)c(Cl)c2)C(=O)N[C@@H](CC(=O)O)C(=O)N[C@H](C)C(=O)N[C@@H](CC(=O)O)C(=O)NCC(=O)N[C@H](CO)C(=O)N[C@@H]([C@H](C)CC(=O)O)C(=O)N[C@@H](CC(=O)c2ccccc2N)C(=O)O[C@@H]1C | 0.39 (≈ 0.212 µM) | 25 (≈ 13.6 µM) | 0.78 (≈ 0.425 µM) | 12.5 (≈ 6.8 µM) | 3.13 (≈ 1.7 µM) | 0.78 (≈ 0.425 µM) | 3.13 (≈ 1.7 µM) | 0.78 (≈ 0.425 µM) |
| CCCCCCCCCC(=O)N[C@@H](Cc1c[nH]c2ccccc12)C(=O)N[C@H](CC(N)=O)C(=O)N[C@@H](CCO)C(=O)N[C@@H]1C(=O)NCC(=O)N[C@@H](CCCNCc2cccc(F)c2)C(=O)N[C@@H](CC(=O)O)C(=O)N[C@H](C)C(=O)N[C@@H](CC(=O)O)C(=O)NCC(=O)N[C@H](CO)C(=O)N[C@@H]([C@H](C)CC(=O)O)C(=O)N[C@@H](CC(=O)c2ccccc2N)C(=O)O[C@@H]1C | 12.5 (≈ 7.29 µM) | 12.5 (≈ 7.29 µM) | 6.25 (≈ 3.64 µM) | 12.5 (≈ 7.29 µM) | 0.56 (≈ 0.327 µM) | 0.78 (≈ 0.455 µM) | 1.56 (≈ 0.91 µM) | 0.78 (≈ 0.455 µM) |
| CCCCCCCCCC(=O)N[C@@H](Cc1c[nH]c2ccccc12)C(=O)N[C@H](CC(N)=O)C(=O)N[C@@H](CCO)C(=O)N[C@@H]1C(=O)NCC(=O)N[C@@H](CCCNCc2ccc(OCc3ccc(F)cc3)c([N+](=O)[O-])c2)C(=O)N[C@@H](CC(=O)O)C(=O)N[C@H](C)C(=O)N[C@@H](CC(=O)O)C(=O)NCC(=O)N[C@H](CO)C(=O)N[C@@H]([C@H](C)CC(=O)O)C(=O)N[C@@H](CC(=O)c2ccccc2N)C(=O)O[C@@H]1C | 1.56 (≈ 0.836 µM) | 25 (≈ 13.4 µM) | 0.78 (≈ 0.418 µM) | 12.5 (≈ 6.7 µM) | 3.13 (≈ 1.68 µM) | 0.78 (≈ 0.418 µM) | 6.25 (≈ 3.35 µM) | 0.39 (≈ 0.209 µM) |
| CCCCCCCCCC(=O)N[C@@H](Cc1c[nH]c2ccccc12)C(=O)N[C@H](CC(N)=O)C(=O)N[C@@H](CCO)C(=O)N[C@@H]1C(=O)NCC(=O)N[C@@H](CCCNCc2ccc(OCc3ccccc3)cc2)C(=O)N[C@@H](CC(=O)O)C(=O)N[C@H](C)C(=O)N[C@@H](CC(=O)O)C(=O)NCC(=O)N[C@H](CO)C(=O)N[C@@H]([C@H](C)CC(=O)O)C(=O)N[C@@H](CC(=O)c2ccccc2N)C(=O)O[C@@H]1C | 3.13 (≈ 1.74 µM) | 25 (≈ 13.9 µM) | 1.56 (≈ 0.865 µM) | 12.5 (≈ 6.93 µM) | 6.25 (≈ 3.47 µM) | 0.78 (≈ 0.433 µM) | 6.25 (≈ 3.47 µM) | 0.78 (≈ 0.433 µM) |
| CCCCCCCCCC(=O)N[C@@H](Cc1c[nH]c2ccccc12)C(=O)N[C@H](CC(N)=O)C(=O)N[C@@H](CCO)C(=O)N[C@@H]1C(=O)NCC(=O)N[C@@H](CCCNCc2cccc([N+](=O)[O-])c2)C(=O)N[C@@H](CC(=O)O)C(=O)N[C@H](C)C(=O)N[C@@H](CC(=O)O)C(=O)NCC(=O)N[C@H](CO)C(=O)N[C@@H]([C@H](C)CC(=O)O)C(=O)N[C@@H](CC(=O)c2ccccc2N)C(=O)O[C@@H]1C | 6.25 (≈ 3.59 µM) | 12.5 (≈ 7.18 µM) | 6.25 (≈ 3.59 µM) | 12.5 (≈ 7.18 µM) | 1.56 (≈ 0.896 µM) | 0.78 (≈ 0.448 µM) | 1.56 (≈ 0.896 µM) | 0.78 (≈ 0.448 µM) |
| CCCCCCCCCC(=O)N[C@@H](Cc1c[nH]c2ccccc12)C(=O)N[C@H](CC(N)=O)C(=O)N[C@@H](CCO)C(=O)N[C@@H]1C(=O)NCC(=O)N[C@@H](CCCNCc2ccc(OCc3ccccc3)cc2O)C(=O)N[C@@H](CC(=O)O)C(=O)N[C@H](C)C(=O)N[C@@H](CC(=O)O)C(=O)NCC(=O)N[C@H](CO)C(=O)N[C@@H]([C@H](C)CC(=O)O)C(=O)N[C@@H](CC(=O)c2ccccc2N)C(=O)O[C@@H]1C | 6.25 (≈ 3.44 µM) | 100 (≈ 55 µM) | 1.56 (≈ 0.858 µM) | 50 (≈ 27.5 µM) | 12.5 (≈ 6.87 µM) | 3.13 (≈ 1.72 µM) | 25 (≈ 13.7 µM) | 1.56 (≈ 0.858 µM) |
| CCCCCCCCCC(=O)N[C@@H](Cc1c[nH]c2ccccc12)C(=O)N[C@H](CC(N)=O)C(=O)N[C@@H](CCO)C(=O)N[C@@H]1C(=O)NCC(=O)N[C@@H](CCCNCc2ccc(C(=O)N3CCN(c4ccccc4)CC3)cc2)C(=O)N[C@@H](CC(=O)O)C(=O)N[C@H](C)C(=O)N[C@@H](CC(=O)O)C(=O)NCC(=O)N[C@H](CO)C(=O)N[C@@H]([C@H](C)CC(=O)O)C(=O)N[C@@H](CC(=O)c2ccccc2N)C(=O)O[C@@H]1C | 6.25 (≈ 3.32 µM) | 6.25 (≈ 3.32 µM) | 3.13 (≈ 1.66 µM) | 6.25 (≈ 3.32 µM) | 1.56 (≈ 0.828 µM) | 0.78 (≈ 0.414 µM) | 1.56 (≈ 0.828 µM) | 0.78 (≈ 0.414 µM) |
